Structures can show the parent of a compound that is named as a salt. Where two headings read alike, the source gives them in different places.
Assays:
[1] = system: shock avoidance acquisition; assay: Blockade (antagonism) of shock avoidance acquisition in rats; format: in vivo; settings: Rattus norvegicus, ip, read-out: ED50 for antagonism (blockade) of avoidance acquisition (A)
Protocol: (§1) To predict the potential ability of a drug to cause EPS, the ratio of its ED50 (i.p.) for antagonism of amphetamine-induced rotation to its ED50 (i.p.) for blockade of shock avoidance acquisition in the rat, a procedure for assessing antipsychotic activity, (R/A ratio) is calculated. The ED50 values of some clinically established antipsychotics in the avoidance and rotational tests and the R/A ratios are presented in Table I.

in vivo = format: in vivo, rat; settings: rat, in vivo, ip, rat
Source text: (§2) There is evidence that antipsychotic drugs cause EPS by interfering with neurotransmission in a nigrostriatal dopaminergic pathway. It is thought that they block dopamine receptors in the neostriatum. Therefore, the ability of a drug to block striatal dopamine receptors is a measure of its EPS liability.
(§3) This treatment causes degeneration of the nigrostriatal dopaminergic pathway accompanied by a marked decrease in the dopamine content of the neostriatum on the side of the lesion. Animals with this lesion develop postural and motor asymmetries which are altered by drugs which affect dopaminergic activity. Amphetamine, which releases dopamine and norepinephrine from catecholaminergic neurons, causes these rats to rotate unidirectionally toward the side of the lesion; i.e., ipsilaterally. Since there is a much larger amount of dopamine to be released by amphetamine from the intact nigrostriatal neurons on the non-lesioned side than from those remaining on the lesioned side, the rotational behavior is apparently due to a preponderance of activation of striatal dopamine receptors on the intact side. The ability of a drug to antagonize the rotational behavior is therefore a measure of its ability to block striatal dopamine receptors and is indicative of its potential to produce EPS.
as §1

[2] = system: striatal dopamine receptors; assay: in vivo; format: in vivo, rat; settings: for ED50 for antagonism of amphetamine-induced rotation (R): rats with unilateral 6-hydroxydopamine lesion, i.p.; for R/A ratio: rat
Source text: as §2, §3, §1

[3] = compared with chlorpromazine; cited from earlier work
[4] = ED50 (i.p.) rotation / ED50 (i.p.) avoidance, high ratio predicts low potential to produce EPS, read-out: R/A ratio

In the case of CN1CCC(=C2c3ccccc3Oc3ccc4ccccc4c32)CC1 [12-(1-methyl-4-piperidylidene)-12H-benzo a!xanthene hydrochloride], the ED50 ([1]; rats, i.p.) is reported as 0.64 mg/kg, the selectivity ratio (in vivo; [4]) is reported as 10 and the EPS liability ([2]; indicated by R/A ratio of 10) is reported as “essentially free of EPS liability”. For the same molecule, the “ED50 for antagonism of amphetamine-induced rotation (R)” value (from here on “ED50 for antagonism”) [2] was 6.4 mg/kg.
For CN(C)CCCN1c2ccccc2Sc2ccc(Cl)cc21 [Chlorpromazine], the ED50 [1] was 1.5 mg/kg, the selectivity ratio (in vivo; [4]) was 1.3 and the “ED50 for antagonism” value [2] was 2.0 mg/kg.
In the case of CN1CCN(C2=Nc3cc(Cl)ccc3Nc3ccccc32)CC1 [Clozapine], the ED50 ([1]; rats, i.p.) is listed as 6.6 mg/kg, the selectivity ratio (in vivo; read-out: R/A ratio) is listed as 3.8 and the “propensity to cause EPS” value [3] is listed as “produce EPS to a lesser extent than chlorpromazine”.
In the case of O=C(CCCN1CCC(O)(c2ccc(Cl)cc2)CC1)c1ccc(F)cc1 [Haloperidol], the ED50 [1] is reported as 0.16 mg/kg, the selectivity ratio (in vivo; R/A ratio) is reported as 0.31 and the R/A ratio ([2]; in vivo, ip) is reported as 0.3 to 0.5. The “ED50 for antagonism” value [2] was 0.05 mg/kg and the “propensity to cause EPS” value [3] was “considerably greater propensity to cause EPS than chlorpromazine”.
O=c1[nH]c2ccccc2n1C1CCN(CCCC(c2ccc(F)cc2)c2ccc(F)cc2)CC1 [Pimozide] gave an ED50 [1] of 0.24 mg/kg, a selectivity ratio (in vivo; [4]) of 0.3 and a R/A ratio ([2]; ED50 (i.p.) rotation / ED50 (i.p.) avoidance, high ratio predicts low potential to produce EPS) of 0.3 to 0.5. The “ED50 for antagonism” value [2] was 0.08 mg/kg and the “propensity to cause EPS” value [3] was “considerably greater propensity to cause EPS than chlorpromazine”.
In the case of CSc1ccc2c(c1)N(CCC1CCCCN1C)c1ccccc1S2 (centres unmarked) [Thioridazine], the ED50 ([1]; rats, i.p.) is reported as 5.1 mg/kg.
For CN1CCN(CCCN2c3ccccc3Sc3ccc(C(F)(F)F)cc32)CC1 [Trifluoperazine], the ED50 ([1]; rats, i.p.) was 0.26 mg/kg, the selectivity ratio (in vivo; R/A ratio) was 0.46 and the R/A ratio ([2]; in vivo, ip) was 0.3 to 0.5. For the same molecule, the “ED50 for antagonism” value [2] was 0.12 mg/kg and the “propensity to cause EPS” value [3] was “considerably greater propensity to cause EPS than chlorpromazine”.
